Results as given in patent US10662164B2, “Non-beta lactam antibiotics” (University of Notre Dame du Lac, priority 2014, dated 2020).

Columns and labels:
Full PK study [1] = type: in vivo, mouse; settings: compound 1, oral; dose not given
S. aureus ATCC 277660 = assay: Minimal-bactericidal concentration (MBC) determination; type: cell-based, Staphylococcus aureus
Protocol: (§1) The MBC of compound 75b was determined using S. aureus ATCC 29213, S. aureus […], and E. faecium NCTC 7171.
(§2) The MBC of indolyl antibiotic 75b was determined by incubation of 1.5×10^5 cells of S. aureus ATCC29213, S. aureus ATCC 27660, and E. faecium NCTC7171 at MIC, 2×MIC, and 4×MIC. Aliquots of 10 μL (corresponding to 1.5×10^4 cells) were plated on agar plates, incubated for 48 h, and colonies were counted in the presence and absence of […].

S. aureus ATCC 29213 = assay: as above; type: cell-based, Staphylococcus aureus; settings: MSSA strain
Protocol: as §1, §2

E. faecium NCTC 7171 = assay: as above; type: cell-based, Enterococcus faecium
Protocol: as §1, §2

Full PK study [2] = type: in vivo, mouse
Protocol: A full PK study was conducted with indole 75b after iv and oral (po) administration. This compound had the lowest in vitro toxicity and the highest efficacy in the mouse peritonitis infection model.
Female ICR mice (6-8 weeks old, ˜20-g body weight) were used for the PK and peritonitis studies. Animals were purchased from Harlan Laboratories, Inc. (Indianapolis, Ind., USA) and given Teklad 2019 Extruded Rodent Diet and water ad libitum. Mice were maintained in polycarbonate shoebox cages with ¼″ corncob (The Andersons Inc., Maumee, Ohio) and Alpha-dri (Sheperd Specialty Papers, Inc., Richland, Mich.) bedding under 12-h light/12-h dark cycle at 72±2° F.
Antibiotic 75b was dissolved in 10% DMSO/25% Tween-80/65% water at a concentration of 5 mg/mL. Mice (n=3 per time point per route of administration) were administered 100 μL of 75b (equivalent to 20 mg/kg) iv. A separate group of mice was given 100 μL of 75b (equivalent to 20 mg/kg) orally (po). Terminal blood was collected in heparin by cardiac puncture at 2, 5, 10, 20, and 40 min, and at 1, 2, 3, 4, 8, and 24 h after iv administration and at 0.5, 1, 2, 3, 4, 6, 9, 24, and 36 h after po administration. Blood was centrifuged at 1200 g for 10 min to obtain plasma. Plasma samples were stored at −80° C. until analysis.
Plasma ([…], aliquot) was mixed with 100 μL of acetonitrile containing internal standard (final concentration 8 μg/mL). After centrifugation at 10000 g for 10 min, the supernatant was analyzed by ultraperformance liquid chromatography (UPLC) with UV detection at 285 nm. A Waters Acquity UPLC System (Waters Corporation, Milford, Mass., USA), consisting of a binary pump, an autosampler, a column heater, and a photodiode array detector was used. An Acquity UPLC C18 1.7 μm, 2.1 mm i.d.×50 mm column was used. Elution was at 0.5 mL/min with 70% A/30% B for 2 min, followed by a 10-min linear gradient to 10% A/90% B, then 70% A/30% B for 2 min, where A=0.1% formic acid/water and B=0.1% formic acid/acetonitrile. Monitoring was by UV detection at 285 nm. Calibration curves for each compound were prepared in control plasma containing internal standard. The concentrations in the PK samples were obtained using peak area ratio to the internal standard and the calibration curve regression analysis parameters. The methods were linear from 0.01 to 100 μg/mL; coefficients of determination R^2 range from 0.98 to 0.99.
The area under the curve (AUC), clearance (CL), volume of distribution (Vd), and terminal half-life were calculated using Phoenix WinNonlin 6.3 (Certara LP, St Louis, Mo., USA) noncompartmental analysis using uniform weighing. Half-lives were estimated from the linear portion of the initial or terminal phase of the concentration-time data by linear regression, where the slope of the line was the rate constant k and t1/2=ln 2/k.

Oc1ccc(-c2nc(-c3ccc(Oc4ccc(C(F)(F)F)cc4)cc3)no2)cc1 [Compound 1]
t1/2abs (Full PK study [1]): 3.3 h

FC(F)(F)c1ccc(Oc2ccc(-c3noc(-c4ccc5[nH]ccc5c4)n3)cc2)cc1 [Compound 75b, 5-(1H-Indol-5-yl)-3-(4-(4-(trifluoromethyl)phenoxy)phenyl)-1,2,4-oxadiazole]
MBC, fold above the MIC (S. aureus ATCC 277660): 2 fold | MBC relative to MIC (S. aureus ATCC 29213): the same as the MIC value | MBC, fold above the MIC (E. faecium NCTC 7171): 2 fold | AUC0-24 h (Full PK study [2]; 20 mg/kg iv, mice): 3140 µg·min/mL | AUC0-∞ (Full PK study [2]; 20 mg/kg iv, mice): 3520 µg·min/mL | CL (Full PK study [2]; 20 mg/kg iv, mice): 5.68 mL/min/kg | Vd (Full PK study [2]; 20 mg/kg iv, mice): 4.73 L/kg | t1/2α (Full PK study [2]; 20 mg/kg iv, mice): t1/2α = 0.54 min | t1/2β (terminal half-life) (Full PK study [2]; 20 mg/kg iv, mice): 9.6 h | F (oral bioavailability) (Full PK study [2]; 20 mg/kg po vs iv, mice): 97% | AUC0-24 h (Full PK study [2]; 20 mg/kg po, mice): 3060 µg·min/mL | AUC0-∞ (Full PK study [2]; 20 mg/kg po, mice): 4060 µg·min/mL | Cmax (Full PK study [2]; 20 mg/kg po, mice): 2340 ng/mL | Tmax (Full PK study [2]; 20 mg/kg po, mice): 6 h | t1/2dist (Full PK study [2]; 20 mg/kg po, mice): t1/2dist = 15.9 h | t1/2elim (terminal half-life) (Full PK study [2]; 20 mg/kg po, mice): 18.6 h | clearance, fold lower than 1 (Full PK study [2]; 75b vs compound 1): 3 fold | volume of distribution, fold higher than 1 (Full PK study [2]; 75b vs compound 1): 13 fold
